# Assay results as given in US20190119251A1, “AMIDE-SUBSTITUTED ARYLTRIAZOLE DERIVATIVES AND USES THEREOF” (BAYER PHARMA AKTIENGESELLSCHAFT, priority 2016, published 2019).
# Legend:
# [1] = biological target: T1, human V2 receptor (Homo sapiens, UniProt P30518); experiment: Cellular in vitro assay for determining vasopressin receptor activity (V2 cell line, CRE-luciferase); format: cell-based; details: CHO cell line transfected with the human V2 receptor; agonist [Arg8]-vasopressin at EC50 concentration; 3 hours incubation; read-out: IC50 hV2
# T1 construct: expressed in transfected cells; host or cells: CHO K1 (Chinese hamster ovary) expressing firefly luciferase under a CRE-responsive promoter
# T1 sequence (P30518 whole entry): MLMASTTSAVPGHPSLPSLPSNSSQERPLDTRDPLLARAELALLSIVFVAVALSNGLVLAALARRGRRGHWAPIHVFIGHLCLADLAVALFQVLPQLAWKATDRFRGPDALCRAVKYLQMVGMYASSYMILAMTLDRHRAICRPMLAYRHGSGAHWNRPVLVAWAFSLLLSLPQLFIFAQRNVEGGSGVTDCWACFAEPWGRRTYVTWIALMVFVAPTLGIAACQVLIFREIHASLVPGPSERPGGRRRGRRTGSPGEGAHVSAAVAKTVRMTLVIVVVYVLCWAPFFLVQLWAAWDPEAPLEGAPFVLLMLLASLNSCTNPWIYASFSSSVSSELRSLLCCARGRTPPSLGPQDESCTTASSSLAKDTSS
# Procedure: (§1) B-1. Cellular In Vitro Assay for Determining Vasopressin Receptor Activity
# (§2) The identification of agonists and antagonists of the V 1 a and V2 vasopressin receptors from humans, rats and dogs as well as the quantification of the activity of the compounds of the invention is carried out using recombinant cell lines. These cell lines originally derive from a hamster's ovary epithelial cell (Chinese Hamster Ovary, CHO K1, ATCC: American Type Culture Collection, Manassas, Va. 20108, USA). The test cell lines constitutively express the human, rat or dog
# (§3) V1 a or V2 receptors. In case of the Gag-coupled V 1 a receptors, cells are also stably transfected with a modified form of the calcium-sensitive photoproteins aequorin (human and rat V1a) or obelin (dog V 1 a), which, after reconstitution with the cofactor coelenterazine, emit light when there are increases in free calcium concentrations [Rizzuto R, Simpson A W, Brini M, Pozzan T, Nature 358, 325-327 (1992); Illarionov B A, Bondar V S, Illarionova V A, Vysotski E S, Gene 153 (2), 273-274 (1995)]. The resulting vasopressin receptor cells react to stimulation of the recombinantly expressed V 1 a receptors by intracellular release of calcium ions, which can be quantified by the resulting photoprotein luminescence. The Gs-coupled V2 receptors are stably transfected into cell lines expressing the gene for firefly luciferase under control of a CRE-responsible promoter. Activation of V2 receptors induces the activation of the CRE-responsive promoter via cAMP increase, thereby inducing the expression of firefly luciferase. The light emitted by photoproteins of V1a cell lines as well as the light emitted by firefly luciferase of V2 cell lines corresponds to the activation or inhibition of the respective vasopressin receptor. The bioluminescence of the cell lines is detected using a suitable luminometer [Milligan G, Marshall F, Rees S, Trends in Pharmacological Sciences 17, 235-237 (1996)].
# Vasopressin V2 Receptor Cell Lines:
# On the day before the assay, the cells are plated out in culture medium (DMEM/F12, 2% FCS, 2 mM glutamine, 10 mM HEPES) in 384-well microtiter plates and kept in a cell incubator (96% humidity, 5% v/v CO2, 37° C.). On the day of the assay, test compounds in various concentrations and the agonist [Arg^8]-vasopressin at EC50 concentration are added together to the wells, and plates are incubated for 3 hours in a cell incubator. Upon addition of the cell lysis reagent Triton™ and the substrate luciferin, luminescence of firefly luciferase is measured in a luminometer.
# (§4) Table 1A below lists individual IC50 values for the compounds of the invention (including racemic mixtures as well as separated enantiomers) that were obtained from cell lines transfected with the human V1a or V2 receptor: […]
# [2] = biological target: T2, human V1a receptor (Homo sapiens, UniProt P37288); experiment: Cellular in vitro assay for determining vasopressin receptor activity (V1a cell line, aequorin luminescence); format: cell-based; details: for IC50: CHO cell line transfected with the human V1a receptor, agonist [Arg8]-vasopressin at EC50 concentration, read-out: IC50 hV1a; for ratio IC50 hV2/hV1a: ratio of cellular IC50 values, human V2 over human V1a
# T2 construct: expressed in transfected cells; host or cells: CHO K1 (Chinese hamster ovary), also stably transfected with modified aequorin
# T2 sequence (P37288 whole entry): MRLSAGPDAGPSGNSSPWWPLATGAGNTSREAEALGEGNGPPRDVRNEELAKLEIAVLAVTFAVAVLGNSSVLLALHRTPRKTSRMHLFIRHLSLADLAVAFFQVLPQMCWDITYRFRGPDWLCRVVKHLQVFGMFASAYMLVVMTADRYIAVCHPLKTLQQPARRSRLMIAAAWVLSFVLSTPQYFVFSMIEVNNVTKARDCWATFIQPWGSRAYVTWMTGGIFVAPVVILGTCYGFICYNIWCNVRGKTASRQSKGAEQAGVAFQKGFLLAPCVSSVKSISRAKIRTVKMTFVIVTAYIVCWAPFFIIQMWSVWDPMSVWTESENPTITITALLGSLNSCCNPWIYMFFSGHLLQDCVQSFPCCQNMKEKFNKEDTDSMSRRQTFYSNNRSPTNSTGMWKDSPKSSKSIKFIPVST
# Procedure: as §1, §2, §3
# Vasopressin V1a Receptor Cell Lines:
# On the day before the assay, the cells are plated out in culture medium (DMEM/F12, 2% FCS, 2 mM glutamine, 10 mM HEPES, 5 μg/ml coelenterazine) in 384-well microtiter plates and kept in a cell incubator (96% humidity, 5% v/v CO2, 37° C.). On the day of the assay, test compounds in various concentrations are placed for 10 minutes in the wells of the microtiter plate before the agonist [Arg^8]-vasopressin at EC50 concentration is added. The resulting light signal is measured immediately in a luminometer.
# as §4
IC50 [1] [nM],IC50 [2] [nM],ratio IC50 hV2/hV1a [2],SMILES
8.73,5.1,1.7,"CCc1cccnc1-n1nc(Cn2nc(-c3ccc(Cl)cc3)n(C[C@H](O)C(F)(F)F)c2=O)nc1C(N)=O [Example 1, 3-({3-(4-Chlorophenyl)-5-oxo-4-[(2S)-3,3,3-trifluoro-2-hydroxypropyl]-4,5-dihydro-1H-1,2,4-triazol-1-yl}methyl)-1-(3-ethylpyridin-2-yl)-1H-1,2,4-triazole-5-carboxamide]"
23.2,5.15,4.5,"Cc1cccnc1-n1nc(Cn2nc(-c3ccc(Cl)cc3)n(C[C@H](O)C(F)(F)F)c2=O)nc1C(N)=O [Example 2, 3-({3-(4-Chlorophenyl)-5-oxo-4-[(2S)-3,3,3-trifluoro-2-hydroxypropyl]-4,5-dihydro-1H-1,2,4-triazol-1-yl}methyl)-1-(3-methylpyridin-2-yl)-1H-1,2,4-triazole-5-carboxamide]"
94,6.7,14.0,"Cc1cnccc1-n1nc(Cn2nc(-c3ccc(Cl)cc3)n(C[C@H](O)C(F)(F)F)c2=O)nc1C(N)=O [Example 3, 3-({3-(4-Chlorophenyl)-5-oxo-4-[(2S)-3,3,3-trifluoro-2-hydroxypropyl]-4,5-dihydro-1H-1,2,4-triazol-1-yl}methyl)-1-(3-methylpyridin-4-yl)-1H-1,2,4-triazole-5-carboxamide]"
27,7.2,3.8,"COc1cccnc1-n1nc(Cn2nc(-c3ccc(Cl)cc3)n(C[C@H](O)C(F)(F)F)c2=O)nc1C(N)=O [Example 4, 3-({3-(4-Chlorophenyl)-5-oxo-4-[(2S)-3,3,3-trifluoro-2-hydroxypropyl]-4,5-dihydro-1H-1,2,4-triazol-1-yl}methyl)-1-(3-methoxypyridin-2-yl)-1H-1,2,4-triazole-5-carboxamide]"
46,17.5,2.6,"NC(=O)c1nc(Cn2nc(-c3ccc(Cl)cc3)n(C[C@H](O)C(F)(F)F)c2=O)nn1-c1ncccc1F [Example 5, 3-({3-(4-Chlorophenyl)-5-oxo-4-[(2S)-3,3,3-trifluoro-2-hydroxypropyl]-4,5-dihydro-1H-1,2,4-triazol-1-yl}methyl)-1-(3-fluoropyridin-2-yl)-1H-1,2,4-triazole-5-carboxamide]"
390,27,14.4,"NC(=O)c1nc(Cn2nc(-c3ccc(Cl)cc3)n(C[C@H](O)C(F)(F)F)c2=O)nn1-c1ccncc1Cl [Example 6, 3-({3-(4-Chlorophenyl)-5-oxo-4-[(2S)-3,3,3-trifluoro-2-hydroxypropyl]-4,5-dihydro-1H-1,2,4-triazol-1-yl}methyl)-1-(3-chloropyridin-4-yl)-1H-1,2,4-triazole-5-carboxamide]"
330,54,6.1,"COC(=O)c1cccnc1-n1nc(Cn2nc(-c3ccc(Cl)cc3)n(C[C@H](O)C(F)(F)F)c2=O)nc1C(N)=O [Example 7, Methyl 2-[5-carbamoyl-3-({3-(4-chlorophenyl)-5-oxo-4-[(2S)-3,3,3-trifluoro-2-hydroxypropyl]-4,5-dihydro-1H-1,2,4-triazol-1-yl}methyl)-1H-1,2,4-triazol-1-yl]pyridine-3-carboxylate]"
248,70,3.5,"NC(=O)c1nc(Cn2nc(-c3ccc(Cl)cc3)n(C[C@H](O)C(F)(F)F)c2=O)nn1-c1ccncc1F [Example 8, 3-({3-(4-Chlorophenyl)-5-oxo-4-[(2S)-3,3,3-trifluoro-2-hydroxypropyl]-4,5-dihydro-1H-1,2,4-triazol-1-yl}methyl)-1-(3-fluoropyridin-4-yl)-1H-1,2,4-triazole-5-carboxamide]"
245,93.5,2.6,"COc1nccnc1-n1nc(Cn2nc(-c3ccc(Cl)cc3)n(C[C@H](O)C(F)(F)F)c2=O)nc1C(N)=O [Example 9, 3-({3-(4-Chlorophenyl)-5-oxo-4-[(2S)-3,3,3-trifluoro-2-hydroxypropyl]-4,5-dihydro-1H-1,2,4-triazol-1-yl}methyl)-1-(3-methoxypyrazin-2-yl)-1H-1,2,4-triazole-5-carboxamide]"
152,97.5,1.6,"NC(=O)c1nc(Cn2nc(-c3ccc(Cl)cc3)n(C[C@H](O)C(F)(F)F)c2=O)nn1-c1cccnc1Cl [Example 10, 3-({3-(4-Chlorophenyl)-5-oxo-4-[(2S)-3,3,3-trifluoro-2-hydroxypropyl]-4,5-dihydro-1H-1,2,4-triazol-1-yl}methyl)-1-(2-chloropyridin-3-yl)-1H-1,2,4-triazole-5-carboxamide]"
150,115,1.3,"NC(=O)c1nc(Cn2nc(-c3ccc(Cl)cc3)n(C[C@H](O)C(F)(F)F)c2=O)nn1-c1ccccn1 [Example 11, 3-({3-(4-Chlorophenyl)-5-oxo-4-[(2S)-3,3,3-trifluoro-2-hydroxypropyl]-4,5-dihydro-1H-1,2,4-triazol-1-yl}methyl)-1-(pyridin-2-yl)-1H-1,2,4-triazole-5-carboxamide]"
150,125,1.2,"Cc1ccnc(Cl)c1-n1nc(Cn2nc(-c3ccc(Cl)cc3)n(C[C@H](O)C(F)(F)F)c2=O)nc1C(N)=O [Example 12, 1-(2-Chloro-4-methylpyridin-3-yl)-3-({3-(4-chlorophenyl)-5-oxo-4-[(2 S)-3,3,3-trifluoro-2-hydroxypropyl]-4,5-dihydro-1H-1,2,4-triazol-1-yl}methyl)-1H-1,2,4-triazole-5-carboxamide]"
525,135,3.9,"CCOc1ncccc1-n1nc(Cn2nc(-c3ccc(Cl)cc3)n(C[C@H](O)C(F)(F)F)c2=O)nc1C(N)=O [Example 13, 3-({3-(4-Chlorophenyl)-5-oxo-4-[(2S)-3,3,3-trifluoro-2-hydroxypropyl]-4,5-dihydro-1H-1,2,4-triazol-1-yl}methyl)-1-(2-ethoxypyridin-3-yl)-1H-1,2,4-triazole-5-carboxamide]"
638,152,4.2,"NC(=O)c1ccncc1-n1nc(Cn2nc(-c3ccc(Cl)cc3)n(C[C@H](O)C(F)(F)F)c2=O)nc1C(N)=O [Example 14, 3-[5-Carbamoyl-3-({3-(4-chlorophenyl)-5-oxo-4-[(2S)-3,3,3-trifluoro-2-hydroxypropyl]-4,5-dihydro-1H-1,2,4-triazol-1-yl}methyl)-1H-1,2,4-triazol-1-yl]pyridine-4-carboxamide]"
35,175,0.2,"NC(=O)c1nc(Cn2nc(-c3ccc(Cl)cc3)n(C[C@H](O)C(F)(F)F)c2=O)nn1-c1cc(Cl)ccn1 [Example 15, 3-({3-(4-Chlorophenyl)-5-oxo-4-[(2S)-3,3,3-trifluoro-2-hydroxypropyl]-4,5-dihydro-1H-1,2,4-triazol-1-yl}methyl)-1-(4-chloropyridin-2-yl)-1H-1,2,4-triazole-5-carboxamide]"
2250,690,3.3,"NC(=O)c1nc(Cn2nc(-c3ccc(Cl)cc3)n(C[C@H](O)C(F)(F)F)c2=O)nn1-c1ncccn1 [Example 16, 3-({3-(4-Chlorophenyl)-5-oxo-4-[(2S)-3,3,3-trifluoro-2-hydroxypropyl]-4,5-dihydro-1H-1,2,4-triazol-1-yl}methyl)-1-(pyrimidin-2-yl)-1H-1,2,4-triazole-5-carboxamide]"
